Experiments:
[1] = target: T1, human mPGES-1 (Homo sapiens, UniProt O14684); test: Microsomal prostaglandin E synthase biochemical assay; conditions: microsomes containing human mPGES-1, PGH2 10.8 μM, GSH 2.5 mM, pH 6.8; average of at least n=2
T1 construct: host or cells: microsomes
T1 sequence (O14684 1-152): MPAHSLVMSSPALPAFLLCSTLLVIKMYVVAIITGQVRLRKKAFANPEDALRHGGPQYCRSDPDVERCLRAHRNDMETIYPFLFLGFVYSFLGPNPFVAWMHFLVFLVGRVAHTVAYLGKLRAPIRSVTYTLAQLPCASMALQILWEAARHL
Description: Compounds were tested as inhibitors of microsomal prostaglandin E synthase activity in microsomal prostaglandin E synthase assays and whole cell assays. These assays measure prostaglandin E2 (PGE2) synthesis, which is taken as a measure of prostaglandin E synthase activity. Microsomal prostaglandin E synthase biochemical assays used microsomal prostaglandin E synthase-1 in microsomal preparations. The source of the microsomes can be for example interleukin-1β-stimulated human A549 cells (which express human mPGES-1) or Sf9 cells transfected with plasmids encoding human mPGES-1 cDNA.
A solution of test compound was added to a diluted microsome preparation containing human mPGES-1 and pre-incubated for 15 minutes in potassium phosphate buffer pH 6.8 with cofactor glutathione (GSH). Corresponding solutions without test compound were used as positive controls, and corresponding solutions without test compound and without microsomes were used as negative controls. The enzymatic reaction was then started by addition of the substrate PGH2 in an organic solution (dry acetonitrile).
The typical reaction conditions of the enzymatic reaction were thus: Test compound: ranging from 60 μM to 0.002 μM, or zero in positive and negative controls; potassium phosphate buffer pH 6.8: 50 mM; GSH: 2.5 mM; mPGES-1-containing microsomes: 2 μg/mL (sample and positive controls) or 0 μg/mL (negative control); PGH2: 10.8 μM; Acetonitrile: 7.7% (v/v); DMSO: 0.6% (v/v). The reaction was stopped after one minute by adding an acidic solution (pH 1.9) of ferric chloride and citrate (final concentrations 7 mM and 47 mM respectively), by which the PGH2 was sequestered (the PGH2 is reduced to mainly 12-hydroxy heptadecatrineoic acid (12-HHT) which is not detected by the subsequent PGE2 detection step). The resulting solution was then pH neutralized by addition of potassium phosphate buffer, prior to diluting an aliquot of the resulting solution in a weak potassium phosphate buffer (50 mM, pH 6.8) containing 0.2% BSA (w/v). [Adapted from Jacobsson et al., Proc. Natl. Acad. Sci. USA, 1999, vol. 96, pp. 7220-7225] The PGE2 formed was quantified by use of a commercial HTRF based kit (catalogue #62PG2PEC or #62P2APEC from Cisbio International). 100% activity was defined as the PGE2 production in positive controls subtracted by the PGE2 production in the negative controls. IC50 values were then determined using standard procedures.
The potency is expressed as IC50 and the value indicated is an average of at least n=2.

[2] = tested on: mPGES-1-dependent PGE2 production in human blood; test: Whole blood assay (LPS-stimulated human blood, PGE2 production); assay type: cell-based; conditions: 0.1 μg/ml LPS, 16 hours, 37° C., PGE2 by HTRF, read-out: hWBA
Description: The whole blood assay [described by Patrignani, P. et al, Journal of Pharmacology and Experimental Therapeutics, 1994, vol. 271, pp 1705-1712] was used as the whole cell assay for testing the compounds. Whole blood provides a protein and cell rich environment for the study of biochemical efficacy of anti-inflammatory compounds, such as prostaglandin synthase inhibitors. To study the inhibitory activities of these compounds, human blood was stimulated with lipopolysaccharide (LPS) for typically 16 hours to induce mPGES-1 expression, after which the concentration of produced PGE2 was measured by competitive-immuno assay (homogeneous time-resolved fluorescence, HTRF) as read out for effectiveness against mPGES-1-dependent PGE2 production.
Human blood collected from human volunteers in heparinized tubes was incubated with 100 μM acetyl salicylic acid, in order to inhibit the constitutively expressed cyclooxygenase (COX)-1/COX-2 enzymes, and then stimulated with 0.1 μg/ml LPS to induce the expression of enzymes along the COX-2 pathway, e.g. COX-2 and mPGES-1. 100 μL of this blood was added to the wells of a 384-well plate containing 1 μL DMSO solutions of compounds typically in the final concentration range 316 μM to 0.01 μM. Naproxen was used as reference compound. The mix was incubated at 37° C. for 16 hours. Plasma was harvested by centrifugation and stored at −70° C. until further analysis of PGE2 levels. For the calculations, the 0%-activity value was represented by blood treated with acetyl salicylic acid, LPS and the reference compound (1 mM Naproxen). The 100%-activity value was represented by blood treated with aspirin, LPS and DMSO. [Reference: Patrignani, P. et al, Journal of Pharmacology and Experimental Therapeutics, 1994, vol. 271, pp 1705-1712]. The PGE2 formed was quantified, after dilution in a weak potassium phosphate buffer (50 mM, pH 6.8) containing 0.2% BSA (w/v), by use of a commercial HTRF based kit (catalogue #62PG2PEC or #62P2APEC from Cisbio International). IC50 values were then determined using standard procedures.

IC50 [1]	IC50 [2]	SMILES
6.96 nM	50.8 nM	NS(=O)(=O)c1ccccc1NS(=O)(=O)CCc1ccc(Cl)cc1OCCc1ccccc1 [Example 1, 2-(2-(4-chloro-2-phenethoxyphenyl)ethylsulfonamido)benzenesulfonamide]
3.7 nM	3.4 nM	COc1ccccc1CCOc1cc(Cl)ccc1CCS(=O)(=O)Nc1ccccc1S(N)(=O)=O [Example 2, 2-(2-(4-chloro-2-(2-methoxyphenethoxy)phenyl)ethylsulfonamido)benzenesulfonamide]
6.4 nM	90 nM	COc1cccc(CCOc2cc(Cl)ccc2CCS(=O)(=O)Nc2ccccc2S(N)(=O)=O)c1 [Example 3, 2-(2-(4-chloro-2-(3-methoxyphenethoxy)phenyl)ethylsulfonamido)benzenesulfonamide]
26.4 nM	70.3 nM	COc1ccc(CCOc2cc(Cl)ccc2CCS(=O)(=O)Nc2ccccc2S(N)(=O)=O)cc1 [Example 4, 2-(2-(4-chloro-2-(4-methoxyphenethoxy)phenyl)ethylsulfonamido)benzenesulfonamide]
4.1 nM	10.4 nM	N#Cc1ccccc1CCOc1cc(Cl)ccc1CCS(=O)(=O)Nc1ccccc1S(N)(=O)=O [Example 5, 2-(2-(4-chloro-2-(2-cyanophenethoxy)phenyl)ethylsulfonamido)benzenesulfonamide]
13.6 nM	77.4 nM	N#Cc1cccc(CCOc2cc(Cl)ccc2CCS(=O)(=O)Nc2ccccc2S(N)(=O)=O)c1 [Example 6, 2-(2-(4-chloro-2-(3-cyanophenethoxy)phenyl)ethylsulfonamido)benzenesulfonamide]
19.9 nM	76.5 nM	N#Cc1ccc(CCOc2cc(Cl)ccc2CCS(=O)(=O)Nc2ccccc2S(N)(=O)=O)cc1 [Example 7, 2-(2-(4-chloro-2-(4-cyanophenethoxy)phenyl)ethylsulfonamido)benzenesulfonamide]
7.3 nM	33.6 nM	Cn1ccc2c(CCOc3cc(Cl)ccc3CCS(=O)(=O)Nc3ccccc3S(N)(=O)=O)cccc21 [Example 8, 2-(2-(4-chloro-2-(2-(1-methyl-1H-indol-4-yl)ethoxy)phenyl)ethylsulfonamido)benzenesulfonamide]
11.9 nM	84.3 nM	NS(=O)(=O)c1ccccc1NS(=O)(=O)CCc1ccc(Cl)cc1OCCc1cccc2c1CC(=O)N2 [Example 9, 2-(2-(4-chloro-2-(2-(2-oxoindolin-4-yl)ethoxy)phenyl)ethylsulfonamido)benzenesulfonamide]
7.97 nM	10.6 nM	NS(=O)(=O)c1cc(CO)ccc1NS(=O)(=O)CCc1ccc(Cl)cc1OCCc1ccccc1 [Example 10, 2-(2-(4-chloro-2-phenethoxyphenyl)ethylsulfonamido)-5-(hydroxymethyl)-benzenesulfonamide]

From patent US10227296B2, “Bis(sulfonamide) derivatives and their use as mPGES inhibitors” (Acturum Real Estate AB, priority 2014, dated 2019)
